# In publication PMC9599461, “Stereoselectivity in the Membrane Transport of Phenylethylamine Derivatives by Human Monoamine Transporters and Organic Cation Transporters 1, 2, and 3” (Biomolecules, 2022):
# Read-outs that look alike come from different tables or passages of the source.
# Key:
# SERT [1] = target: T1, SERT (Homo sapiens, UniProt P31645);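 note: uptake into HEK293 cells stably expressing human SERT over 2 min, enantiomers measured in cell lysate by chiral HPLC-MS/MS, normalized to total protein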
# T1 sequence (P31645 whole entry): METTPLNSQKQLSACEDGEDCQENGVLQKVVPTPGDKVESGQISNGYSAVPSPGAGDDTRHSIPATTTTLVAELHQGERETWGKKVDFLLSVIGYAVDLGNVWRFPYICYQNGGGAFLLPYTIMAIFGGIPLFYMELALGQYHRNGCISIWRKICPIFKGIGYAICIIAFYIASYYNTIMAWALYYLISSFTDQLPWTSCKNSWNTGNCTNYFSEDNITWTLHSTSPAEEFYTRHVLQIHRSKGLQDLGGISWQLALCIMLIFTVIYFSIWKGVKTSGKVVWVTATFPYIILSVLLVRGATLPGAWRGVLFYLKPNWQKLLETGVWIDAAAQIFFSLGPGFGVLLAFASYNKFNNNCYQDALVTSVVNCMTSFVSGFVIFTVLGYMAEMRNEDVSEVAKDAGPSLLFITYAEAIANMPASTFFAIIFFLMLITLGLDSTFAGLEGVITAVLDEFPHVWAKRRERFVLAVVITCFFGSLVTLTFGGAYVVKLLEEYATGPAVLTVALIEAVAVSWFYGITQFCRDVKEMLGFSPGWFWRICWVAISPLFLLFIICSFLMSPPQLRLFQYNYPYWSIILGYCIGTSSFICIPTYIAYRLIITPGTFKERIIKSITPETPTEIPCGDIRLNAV
# Description: (§1) All transport experiments were carried out in HEK293 cells stably overexpressing human MATs or OCTs. […] All cells were regularly cultivated in DMEM supplemented with 10% (v/v) FCS, penicillin (100 U/mL) and streptomycin (100 μg/mL)and kept in culture for no longer than 30 passages.
# (§2) For the uptake experiments, 300,000 cells were plated in poly-D-lysine precoated 24-well plates 48 h ahead of the transport experiment. On the day of experiment, cells were initially washed once with 37 °C pre-warmed HBSS+ (Hanks buffered salt solution supplemented with 10 mM HEPES) and subsequently incubated with the substrates dissolved in pre-warmed HBSS+ for exactly two minutes. Incubation was stopped by adding ice-cold HBSS+ followed by two washing steps. After this, cells were lysed with 80% acetonitrile containing 10 ng/mL milnacipran as internal standard for high-performance liquid chromatography coupled to tandem mass spectrometry (HPLC-MS/MS) analysis. For every experiment, two additional wells per cell line were lysed using RIPA buffer for protein quantification. Total protein was quantified using the bicinchoninic acid assay [42]. This was later used for normalization of the uptake data.
# (§3) Intracellularly accumulated test substances were quantified by HPLC-MS/MS analysis using a Shimadzu Nexera HPLC system with a SIL-30AC autosampler, a CTO-20AC column oven, a LC-30AD pump, and a CBM-20A controller (Shimadzu, Kyoto, Japan). […] CBH HPLC column (100 × 3 mm inner dimension with 5 μM particle size; Sigma-Aldrich, Darmstadt, Germany) with a corresponding 10 × 3 mm guard column. Reversed phased chromatography was carried out using an ammonium acetate (NH4Ac) buffered aqueous mobile phase with isopropyl alcohol (IPA) as organic solvent. […] The order of elution of the enantiomers was obtained from available reference literature [43] or by applying enantiopure reference compounds to the chiral HPLC.
# (§4) Detection was performed with an API 4000 tandem mass spectrometer (AB SCIEX, Darmstadt, Germany) operating in multiple-reaction-monitoring mode. Quantification was performed using the Analyst 1.6.2 software (AB SCIEX, Darmstadt, Germany) and quantified by comparison to standard curves with known concentrations.
# (§5) All uptake data were normalized to protein content to account for variation in the number of seeded sells. Transporter-mediated net uptake was calculated by subtracting uptake into empty vector-transfected control cells from uptake into transporter-transfected cells. […] Vmax refers to the maximum transport velocity and Km is defined as the substance concentration required to reach half of vmax. The intrinsic clearance Clint was calculated as the quotient of vmax over Km.
# NET = NET (Homo sapiens, UniProt P23975); assay: Stereoselective uptake into NET-overexpressing HEK293 cells; settings: for Vmax ± SEM / Km: HEK293 cells overexpressing human NET, racemic substrate, two minutes; for Vmax ± SEM: net uptake; for Clint ± SEM: quotient of vmax over Km; for Stereoselectivity ClInt / Stereoselectivity Vmax / Stereoselectivity Km: ratio between enantiomers; for Stereoselectivity ClInt / Stereoselectivity Vmax: given as for (S) or for 2; for Stereoselectivity Km: given as for (S) or for 2 (second-eluting); for Km: read-out: Km ± SEM, net uptake minus empty vector control;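 for all read-outs here: intracellular enantiomers quantified in cell lysates by chiral HPLC-MS/MS after a 2 min substrate incubation, with uptake normalized to total cellular protein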
# Chain of NET (P23975 whole entry): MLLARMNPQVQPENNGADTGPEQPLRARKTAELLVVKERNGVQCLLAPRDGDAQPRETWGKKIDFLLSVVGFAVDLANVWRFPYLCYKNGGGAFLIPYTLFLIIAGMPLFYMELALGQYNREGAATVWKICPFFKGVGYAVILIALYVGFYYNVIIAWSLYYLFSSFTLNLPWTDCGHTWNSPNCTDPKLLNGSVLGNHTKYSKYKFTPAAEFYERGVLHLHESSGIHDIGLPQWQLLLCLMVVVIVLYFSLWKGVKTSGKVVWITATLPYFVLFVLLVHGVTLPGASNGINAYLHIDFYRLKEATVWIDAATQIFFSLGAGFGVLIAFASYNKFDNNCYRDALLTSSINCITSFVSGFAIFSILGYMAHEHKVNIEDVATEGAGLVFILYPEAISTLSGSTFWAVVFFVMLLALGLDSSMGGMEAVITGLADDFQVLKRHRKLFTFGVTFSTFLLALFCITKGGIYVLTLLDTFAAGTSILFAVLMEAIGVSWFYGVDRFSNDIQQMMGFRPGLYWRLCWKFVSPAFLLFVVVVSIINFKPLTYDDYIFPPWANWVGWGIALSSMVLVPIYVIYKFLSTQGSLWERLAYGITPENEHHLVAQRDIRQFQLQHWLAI
# Description: as §1, §2
# (§6) Intracellularly accumulated test substances were quantified by HPLC-MS/MS analysis using a Shimadzu Nexera HPLC system with a SIL-30AC autosampler, a CTO-20AC column oven, a LC-30AD pump, and a CBM-20A controller (Shimadzu, Kyoto, Japan). Stereoselective chromatography was carried out on a [sequence] CBH HPLC column (100 × 3 mm inner dimension with 5 μM particle size; Sigma-Aldrich, Darmstadt, Germany) with a corresponding 10 × 3 mm guard column. Reversed phased chromatography was carried out using an ammonium acetate (NH4Ac) buffered aqueous mobile phase with isopropyl alcohol (IPA) as organic solvent. […] The order of elution of the enantiomers was obtained from available reference literature [43] or by applying enantiopure reference compounds to the chiral HPLC. […] Given the structural similarity of the investigated substances and the fact that separation was performed on the same column with almost identical mobile phases, we assume that this order of elution for our compound set is always the (R)- before the (S)-enantiomer.
# as §4
# (§7) All uptake data were normalized to protein content to account for variation in the number of seeded sells. Transporter-mediated net uptake was calculated by subtracting uptake into empty vector-transfected control cells from uptake into transporter-transfected cells. Kinetic parameters were then determined after non-linear regression following the Michaelis–Menten equation (v = vmax × [S]/(Km + [S])) using GraphPad Prism (Version 5.01 for Windows, GraphPad Software, La Jolla, CA, USA). Vmax refers to the maximum transport velocity and Km is defined as the substance concentration required to reach half of vmax. The intrinsic clearance Clint was calculated as the quotient of vmax over Km.
# DAT = DAT (Homo sapiens, UniProt Q01959); assay: Stereoselective uptake into DAT-overexpressing HEK293 cells; settings: DAT; result in words;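 note: intracellular accumulation measured by chiral HPLC-MS/MS in stably transfected HEK293 cells, normalized to total protein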
# Chain of DAT (Q01959 whole entry): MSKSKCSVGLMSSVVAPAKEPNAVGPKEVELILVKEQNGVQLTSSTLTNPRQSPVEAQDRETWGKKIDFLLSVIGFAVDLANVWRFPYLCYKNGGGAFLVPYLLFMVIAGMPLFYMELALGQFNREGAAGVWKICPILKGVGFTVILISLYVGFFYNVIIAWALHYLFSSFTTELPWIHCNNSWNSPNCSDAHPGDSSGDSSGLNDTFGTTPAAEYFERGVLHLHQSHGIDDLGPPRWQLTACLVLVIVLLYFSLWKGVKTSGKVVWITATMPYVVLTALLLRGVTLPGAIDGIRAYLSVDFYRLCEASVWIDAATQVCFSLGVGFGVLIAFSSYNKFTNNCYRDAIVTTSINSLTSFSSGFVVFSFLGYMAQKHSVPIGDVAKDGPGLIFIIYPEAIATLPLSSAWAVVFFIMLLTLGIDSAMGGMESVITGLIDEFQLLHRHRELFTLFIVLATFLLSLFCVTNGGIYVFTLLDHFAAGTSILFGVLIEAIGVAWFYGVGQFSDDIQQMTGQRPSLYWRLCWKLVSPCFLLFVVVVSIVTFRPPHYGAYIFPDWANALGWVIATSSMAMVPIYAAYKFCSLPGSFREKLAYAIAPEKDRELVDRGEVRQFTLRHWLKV
# Description: as §1, §2, §6, §4, §7
# SERT [2] = target: T1, SERT; assay: Stereoselective uptake into SERT-overexpressing HEK293 cells; settings: for Clint ± SEM: SERT, quotient of vmax over Km; for Vmax ± SEM / Km: HEK293 cells overexpressing human SERT, racemic substrate, two minutes; for Vmax ± SEM: net uptake; for Km: read-out: Km ± SEM, net uptake minus empty vector control;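 for all read-outs here: uptake into HEK293 cells stably expressing human SERT over 2 min, enantiomers measured in cell lysate by chiral HPLC-MS/MS, normalized to total protein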
# Description: as §1, §2, §3, §4, §5
# OCT1 = target: T2, OCT1 (Homo sapiens, UniProt O15245); assay: Stereoselective uptake into OCT1-overexpressing HEK293 cells; settings: for Vmax ± SEM / Km: HEK293 cells overexpressing human OCT1, racemic substrate, two minutes; for Vmax ± SEM: net uptake; for Clint ± SEM: quotient of vmax over Km; for Km: read-out: Km ± SEM, net uptake minus empty vector control;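 for all read-outs here: enantiomers quantified inside cells by chiral HPLC-MS/MS, uptake normalized to total protein from bicinchoninic acid assay, substrates applied in HBSS+ buffer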
# T2 sequence (O15245 1-554): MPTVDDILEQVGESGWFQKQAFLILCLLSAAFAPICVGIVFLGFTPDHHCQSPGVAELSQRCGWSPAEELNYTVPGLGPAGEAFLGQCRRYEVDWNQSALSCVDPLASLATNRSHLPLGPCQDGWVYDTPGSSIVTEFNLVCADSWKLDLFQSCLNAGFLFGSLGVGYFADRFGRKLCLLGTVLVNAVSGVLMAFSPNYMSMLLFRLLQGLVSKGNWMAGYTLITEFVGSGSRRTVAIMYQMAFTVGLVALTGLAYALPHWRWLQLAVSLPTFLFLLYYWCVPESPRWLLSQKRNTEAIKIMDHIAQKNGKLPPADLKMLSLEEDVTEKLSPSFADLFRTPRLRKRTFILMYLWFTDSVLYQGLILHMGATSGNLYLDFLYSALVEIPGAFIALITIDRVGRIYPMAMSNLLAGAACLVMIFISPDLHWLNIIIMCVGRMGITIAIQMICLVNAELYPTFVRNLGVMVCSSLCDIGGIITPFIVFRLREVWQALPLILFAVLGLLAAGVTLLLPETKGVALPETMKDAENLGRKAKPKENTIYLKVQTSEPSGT
# OCT3 = target: T3, OCT3 (Homo sapiens, UniProt O75751); assay: Stereoselective uptake into OCT3-overexpressing HEK293 cells; settings: for Clint ± SEM: quotient of vmax over Km; for Stereoselectivity Vmax: given as for (R) or for 1; for Vmax ± SEM / Km: HEK293 cells overexpressing human OCT3, racemic substrate, two minutes; for Vmax ± SEM: net uptake; for Km: read-out: Km ± SEM, net uptake minus empty vector control;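 for all read-outs here: intracellular accumulation in HEK293 cells measured by chiral HPLC-MS/MS after a 2 min substrate exposure at 37 °C, uptake normalized to total protein (bicinchoninic acid assay)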
# T3 sequence (O75751 1-556): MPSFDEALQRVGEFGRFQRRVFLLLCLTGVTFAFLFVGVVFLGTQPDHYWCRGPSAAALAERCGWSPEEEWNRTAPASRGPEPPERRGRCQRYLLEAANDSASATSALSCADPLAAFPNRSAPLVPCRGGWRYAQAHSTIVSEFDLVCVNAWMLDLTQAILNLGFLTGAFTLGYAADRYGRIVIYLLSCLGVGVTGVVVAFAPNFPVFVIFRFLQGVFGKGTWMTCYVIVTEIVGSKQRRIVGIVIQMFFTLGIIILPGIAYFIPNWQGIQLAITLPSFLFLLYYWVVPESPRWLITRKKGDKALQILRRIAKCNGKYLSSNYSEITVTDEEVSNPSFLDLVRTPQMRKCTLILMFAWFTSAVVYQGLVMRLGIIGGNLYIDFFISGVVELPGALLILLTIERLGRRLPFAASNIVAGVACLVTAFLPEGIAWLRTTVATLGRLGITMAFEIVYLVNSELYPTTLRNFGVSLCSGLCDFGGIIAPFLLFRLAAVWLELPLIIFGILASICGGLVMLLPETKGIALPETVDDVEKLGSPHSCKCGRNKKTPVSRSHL
# OCT2 [3] = target: T4, OCT2 (Homo sapiens, UniProt O15244); assay: Stereoselective uptake into OCT2 (wild-type)-overexpressing HEK293 cells; settings: for Vmax ± SEM / Km: HEK293 cells overexpressing human OCT2, racemic substrate, two minutes; for Vmax ± SEM: net uptake; for Clint ± SEM: OCT2, quotient of vmax over Km; for Km: read-out: Km ± SEM, net uptake minus empty vector control
# T4 sequence (O15244 1-555 S270A): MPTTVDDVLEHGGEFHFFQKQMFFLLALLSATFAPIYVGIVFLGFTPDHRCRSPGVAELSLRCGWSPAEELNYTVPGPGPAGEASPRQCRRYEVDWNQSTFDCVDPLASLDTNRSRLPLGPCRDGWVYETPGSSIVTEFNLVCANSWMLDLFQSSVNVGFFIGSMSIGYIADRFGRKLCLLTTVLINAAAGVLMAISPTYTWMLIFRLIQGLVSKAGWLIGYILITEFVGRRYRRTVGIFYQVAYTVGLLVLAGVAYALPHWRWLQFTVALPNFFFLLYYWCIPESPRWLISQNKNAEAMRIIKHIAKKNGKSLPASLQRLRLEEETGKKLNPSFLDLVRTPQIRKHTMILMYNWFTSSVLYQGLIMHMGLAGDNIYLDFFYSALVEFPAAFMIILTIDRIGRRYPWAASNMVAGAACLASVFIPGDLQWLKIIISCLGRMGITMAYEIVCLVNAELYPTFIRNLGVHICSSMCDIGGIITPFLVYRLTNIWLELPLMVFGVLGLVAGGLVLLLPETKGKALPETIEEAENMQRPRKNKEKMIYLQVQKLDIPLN
# OCT2 [4] = target: T5, OCT2 (Homo sapiens, UniProt O15244, S270A); assay: as above; settings: OCT2, ratio between enantiomers
# T5 sequence (O15244 1-555 S270A): T4 sequence (O15244 1-555 S270A)
# OCT2 A270S variant = assay: Stereoselective uptake into OCT2 A270S variant-overexpressing HEK293 cells; settings: 100 μM racemic substance, two minutes; for Transporter selectivity: OCT2 wild-type versus A270S;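 for all read-outs here: uptake into HEK293 cells stably overexpressing human OCT2 variants, intracellular enantiomers quantified by chiral HPLC-MS/MS and normalized to total protein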
# [5] = OCT3, ratio between enantiomers
# [6] = OCT1, ratio between enantiomers, given as for (R) or for 1 (also 1.00-fold for 1/2)
# [7] = OCT3, ratio between enantiomers, given as for (S) or for 2 (second-eluting)
# [8] = given as for (R) or for 1 (first-eluting)
SMILES,Saturable net uptake (DAT),Stereoselectivity Km (SERT [2]) [fold],Stereoselectivity Vmax (SERT [2]) [fold],Clint ± SEM (SERT [2]),Vmax ± SEM (OCT1),Clint ± SEM (OCT1; OCT1),Clint ± SEM (OCT3; OCT3),Stereoselectivity Vmax (OCT3; [5]) [fold],Vmax ± SEM (OCT2 [3]),Clint ± SEM (OCT2 [3]),Stereoselectivity ClInt (SERT [1]) [fold],Vmax ± SEM (NET),Clint ± SEM (NET; NET),Stereoselectivity ClInt (NET; NET) [fold],Stereoselectivity Vmax (NET; NET) [fold],Stereoselectivity Km (NET; NET) [fold],Km (NET) [µM],Vmax ± SEM (SERT [2]),Km (SERT [2]) [µM],Stereoselectivity ClInt (OCT1; [6]) [fold],other results
"CNCC(O)c1ccc(O)c(OC)c1 (single isomer, unassigned) [Metanephrine-2, Metanephrine]",No saturable net uptake,1.09,1.08,0.57 mL × g Protein^−1 × min^−1,1018 pmol × mg Protein^−1 × min^−1,6.97 mL × g Protein^−1 × min^−1,26.0 mL × g Protein^−1 × min^−1,1.19,528 pmol × mg Protein^−1 × min^−1,7.75 mL × g Protein^−1 × min^−1,,,,,,,,,,,"Stereoselectivity ClInt (SERT [1]; human): 1.01 fold; Saturable net uptake (NET; NET, result in words): No saturable net uptake; Stereoselectivity Vmax (OCT1; OCT1, ratio between enantiomers, given as for (R) or for 1): 1.06 fold; Stereoselectivity Km (OCT1; OCT1, ratio between enantiomers, given as for (S) or for 2 (second-eluting)): 1.09 fold; Stereoselectivity ClInt (OCT1; human, 2 min): 1.16 fold; Stereoselectivity ClInt (OCT3; OCT3, ratio between enantiomers, given as for (R) or for 1 (also 1.00-fold for 1/2)): 1.00 fold; Stereoselectivity Km (OCT3; OCT3, ratio between enantiomers, given as for (R) or for 1 (first-eluting)): 1.19 fold; Stereoselectivity ClInt (OCT2 [4]; given as for (R) or for 1): 2.66 fold; Stereoselectivity Vmax (OCT2 [4]; given as for (R) or for 1): 2.13 fold; Stereoselectivity Km (OCT2 [4]; given as for (S) or for 2 (second-eluting)): 1.25 fold; Transporter selectivity (OCT2 A270S variant; given as for A270S, listed as (S)-Metanephrine): 1.47 fold"
"C[C@@H]1NCCc2cc(O)c(O)cc21 [Salsolinol-1, Salsolinol]",No saturable net uptake,1.85,1.34,1.77 mL × g Protein^−1 × min^−1,1450 pmol × mg Protein^−1 × min^−1,10.9 mL × g Protein^−1 × min^−1,3.80 mL × g Protein^−1 × min^−1,1.01,9083 pmol × mg Protein^−1 × min^−1,40.9 mL × g Protein^−1 × min^−1,2.48,112 pmol × mg Protein^−1 × min^−1,1.24 mL × g Protein^−1 × min^−1,1.19,1.35,1.13,90.1,229 pmol × mg Protein^−1 × min^−1,129,1.00,"Km (OCT1): 133 µM; Stereoselectivity ClInt (OCT3): 1.21 fold; Vmax ± SEM (OCT3): 705 pmol × mg Protein^−1 × min^−1; Stereoselectivity Km (OCT3; [7]): 1.20 fold; Km (OCT3): 186 µM; Km (OCT2 [3]): 222 µM; Stereoselectivity Km (OCT2 [4]; [8]): 1.04 fold; Stereoselectivity ClInt (OCT2 [4]; given as for (S) or for 2): 1.05 fold; Stereoselectivity Vmax (OCT2 [4]; given as for (S) or for 2): 1.01 fold; Net uptake by A270S variant in comparison to the wild-type (OCT2 A270S variant): 66%; Transporter selectivity (OCT2 A270S variant; given as for WT, listed as (R)-Salsolinol): 1.50 fold"
"C[C@@H]1NCCc2cc(O)c(O)cc21 [Salsolinol-2, Salsolinol]",,1.85,1.34,0.71 mL × g Protein^−1 × min^−1,1426 pmol × mg Protein^−1 × min^−1,10.9 mL × g Protein^−1 × min^−1,3.15 mL × g Protein^−1 × min^−1,1.01,9160 pmol × mg Protein^−1 × min^−1,42.7 mL × g Protein^−1 × min^−1,2.48,151 pmol × mg Protein^−1 × min^−1,1.48 mL × g Protein^−1 × min^−1,1.19,1.35,1.13,102,171 pmol × mg Protein^−1 × min^−1,239,1.00,"Km (OCT1): 131 µM; Stereoselectivity ClInt (OCT3): 1.21 fold; Vmax ± SEM (OCT3): 697 pmol × mg Protein^−1 × min^−1; Stereoselectivity Km (OCT3; [7]): 1.20 fold; Km (OCT3): 222 µM; Km (OCT2 [3]): 213 µM; Stereoselectivity Km (OCT2 [4]; [8]): 1.04 fold; Stereoselectivity ClInt (OCT2 [4]; given as for (S) or for 2): 1.05 fold; Stereoselectivity Vmax (OCT2 [4]; given as for (S) or for 2): 1.01 fold; Transporter selectivity (OCT2 A270S variant; given as for WT, listed as (S)-Salsolinol): 1.45 fold"
